Several values for one entry are separate records, joined by “and”; a condition that tells them apart may be missing. Equal values may be shown once.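 In this assay, cells in 96-well plates receive the compound at five concentrations for 48 hours. Endpoints are linearly interpolated between the surrounding concentrations. The concentration for 50% growth inhibition is given as GI50. TGI marks complete inhibition of growth.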
Legend:
Assay in all cases: NCI anticancer screen, dose series, 48 h
MALME-3M melanoma = tested on: MALME-3M melanoma
OVCAR-5 ovarian = tested on: OVCAR-5 ovarian
NCI-H522 lung = tested on: NCI-H522 lung
HCT-15 colon = tested on: HCT-15 colon
HL-60(TB) leukemia = tested on: HL-60(TB) leukemia
KM12 colon = tested on: KM12 colon
EKVX NSCLC = tested on: EKVX NSCLC
SK-MEL-5 melanoma = tested on: SK-MEL-5 melanoma
NCI-H23 lung = tested on: NCI-H23 lung
SF-295 CNS = tested on: SF-295 CNS

Structure (SMILES)	TGI (MALME-3M melanoma)	TGI (OVCAR-5 ovarian)	TGI (NCI-H522 lung)	TGI (HCT-15 colon) [µM]	TGI (HL-60(TB) leukemia)	TGI (KM12 colon)	TGI (EKVX NSCLC)	TGI (SK-MEL-5 melanoma) [µM]	TGI (NCI-H23 lung) [µM]	TGI (SF-295 CNS) [µM]	GI50 (MALME-3M melanoma)	GI50 (OVCAR-5 ovarian)	GI50 (NCI-H522 lung)	GI50 (HCT-15 colon)	GI50 (HL-60(TB) leukemia)	GI50 (KM12 colon)	GI50 (EKVX NSCLC)	GI50 (SK-MEL-5 melanoma) [µM]	GI50 (NCI-H23 lung)	GI50 (SF-295 CNS)
O=CN/C=C/c1cc(O)ccc1O	35.6 µM	> 100 µM	11.2 µM	28.2	13.2 µM	> 100 µM	35.6 µM	39.3	43.7	> 100										
Cc1ccc(C(=O)/C(=C/c2ccc([N+](=O)[O-])cc2)SCc2ccc(Cl)cc2)cc1	19.2 µM	9.12 µM	3.54 µM	2.69	7.29 µM	5.73 µM	13.9 µM	6.43	20.7	3.4	4.34 µM	2.5 µM	1.64 µM	0.565 µM	2.35 µM	1.91 µM	3.04 µM	2.34	2.73 µM	1.55 µM
O=C1CC(c2ccc3c(c2)OCO3)Nc2ccccc21 (stereo unspecified)	30.2 µM	> 55.4 µM	38.8 µM	31	> 100 µM	20.8 µM	46.4 µM	25.8	32.7	24.1	14.5 µM	11.1 µM	12.9 µM	5.61 µM	3.16 µM	5.36 µM	11.8 µM	12.6	12.2 µM	10.1 µM
NC(Cc1c[nH]c2c(O)cccc12)C(=O)O (stereo unspecified)	> 100 µM	> 100 µM	> 100 µM	> 100	> 100 µM	> 100 µM	> 100 µM	> 100	> 100	> 100	> 100 µM	> 100 µM	> 100 µM	> 100 µM	> 100 µM	> 100 µM	> 100 µM	49.6	> 100 µM	> 100 µM
CSc1nc2c(c(=O)[nH]1)N=C1c3ccccc3C(=O)C1C(c1ccccc1)N2 (stereo unspecified)	> 100 µM	> 100 µM	30.4 µM	> 100	> 100 µM	37.5 µM	> 100 µM	67.2	> 100	> 100	2.33 µM	63.4 µM	1.41 µM	2.8 µM	2.51 µM	2.27 µM	12.8 µM	1.5	5.82 µM	1.91 µM
CN(C)CC[N+]1=Nc2cccc3cccc(c23)N1	> 100 µM	> 100 µM	> 95.7 µM	> 100	> 60.1 µM	> 100 µM	> 100 µM	> 100	> 100	> 100										
CN/N=C(/Cc1occc(=O)c1O)C(=O)Nc1ccccc1C	> 100 µM	> 100 µM	> 100 µM	> 100	> 100 µM	> 100 µM	> 100 µM	> 100	> 100	> 100										
O=C(Nc1ccccc1OC(F)(F)F)Nc1n[nH]c2ccccc12	> 100 µM	> 100 µM	> 100 µM	> 100	> 100 µM	> 100 µM	> 100 µM	> 100	> 100	> 100	76.8 µM	34.3 µM	33.9 µM	36.2 µM	17.9 µM	23.4 µM	48.2 µM	28.7	50 µM	39 µM
Cc1ccc2c(=O)cc(-c3ccc(F)cc3)[nH]c2n1	> 100 µM	> 100 µM	84.7 µM	> 100	34.3 µM	> 100 µM	> 100 µM	> 100	> 100	> 100								31.3		36.8 µM
CCCCCN(CCCCC)CC(O)c1cc(C)c2ccc3cc(C(C)C)ccc3c2c1 (stereo unspecified)	3.85 µM	3.66 µM	3.85 µM	3.43	4.02 µM	3.36 µM	3.34 µM	3.62	3.4	3.46	1.92 µM	1.8 µM	1.81 µM	1.81 µM	2.04 µM	1.8 µM	1.76 µM	1.83	1.77 µM	1.87 µM
O=S1(=O)c2ccccc2NC(c2ccc3ccccc3c2)CC1c1ccccc1F (stereo unspecified)	> 100 µM	> 100 µM	> 100 µM	> 100	> 100 µM	> 100 µM	> 100 µM	> 100	> 100	> 100										
COC1=CC(c2ccc[nH]2)=N/C1=C\c1[nH]c(C)c(C(=O)OC(C)C)c1C	2.19 µM	1.95 µM	0.637 µM	1.14	2.89 µM	1.8 µM	2.31 µM	0.0773	1.74	0.123	0.456 µM	0.144 µM	0.0445 µM	0.026 µM	0.0551 µM	0.0439 µM	0.0799 µM	0.0242	0.0702 µM	0.0264 µM
c1ccc2cc(-c3cc(-c4cc(-c5ccc6ccccc6c5)on4)no3)ccc2c1	> 100 µM	> 100 µM	> 100 µM	> 100	> 100 µM	> 100 µM	> 100 µM	> 100	> 100	> 100										
CCOC(=O)[C@]1(OC(C)=O)C[C@H](OC(C)=O)[C@@H](C(F)COP(=O)(OCc2ccccc2)OCc2ccccc2)O1 (stereo partly specified)	33.8 µM and > 100 µM	95 µM and > 100 µM	93.7 µM and > 100 µM	> 100	86.6 µM and > 100 µM	41.2 µM and > 100 µM	71.3 µM and > 100 µM	> 100	> 100	> 100	13.9 µM and > 100 µM	32.7 µM and > 100 µM	28.3 µM and > 100 µM	33.1 µM and > 100 µM	31.9 µM and > 100 µM	19.3 µM and > 100 µM	26.3 µM and > 100 µM		48.9 µM and > 100 µM	47.9 µM and > 100 µM
NNC(=O)Nc1cccnc1	> 100 µM	> 100 µM	> 100 µM	> 100	> 100 µM	> 100 µM	> 100 µM	> 100	> 100	> 100										

Reference: PubChem BioAssay (NCI)
